Source: patent US11655235B2, “Pyrrolidine and piperidine compounds” (YUHAN CORPORATION, priority 2019, dated 2023)
pIC50: −log10 of the molar value.

How the values were obtained:
Recombinant human FAP = target: T1, Recombinant human FAP (Homo sapiens, UniProt Q12884); assay: FAP inhibition, fluorogenic substrate Z-Gly-Pro-AMC; assay type: biochemical; conditions: for pIC50: 25° C., Z-Gly-Pro-AMC substrate; for inhibition at 1 µM: read-out: hFAP inhibition % at 1 μM
T1 construct: purchased R&D systems
T1 sequence (Q12884 1-760): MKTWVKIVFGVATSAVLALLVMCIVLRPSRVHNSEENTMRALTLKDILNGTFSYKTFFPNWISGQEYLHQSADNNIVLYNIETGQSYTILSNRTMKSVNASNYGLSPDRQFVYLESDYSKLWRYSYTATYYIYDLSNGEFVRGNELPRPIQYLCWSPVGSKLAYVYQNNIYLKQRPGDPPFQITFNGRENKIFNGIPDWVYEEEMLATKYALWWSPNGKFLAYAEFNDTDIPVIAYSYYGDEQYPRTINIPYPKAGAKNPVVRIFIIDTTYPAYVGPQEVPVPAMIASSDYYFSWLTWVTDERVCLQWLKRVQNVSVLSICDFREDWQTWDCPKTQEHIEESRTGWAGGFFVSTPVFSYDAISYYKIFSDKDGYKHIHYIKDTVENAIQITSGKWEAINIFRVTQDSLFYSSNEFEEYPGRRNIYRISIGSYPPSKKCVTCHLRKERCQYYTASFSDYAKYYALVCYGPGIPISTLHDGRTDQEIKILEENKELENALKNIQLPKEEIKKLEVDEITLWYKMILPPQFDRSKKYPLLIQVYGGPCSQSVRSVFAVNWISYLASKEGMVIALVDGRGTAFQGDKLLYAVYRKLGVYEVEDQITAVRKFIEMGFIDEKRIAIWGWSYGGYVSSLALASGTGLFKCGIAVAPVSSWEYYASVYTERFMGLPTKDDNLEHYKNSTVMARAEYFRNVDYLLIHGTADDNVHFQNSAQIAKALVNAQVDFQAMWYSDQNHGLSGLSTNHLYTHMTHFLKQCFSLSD
Method: The compounds according to the present technology were evaluated in terms of the inhibitory effect on the activity of dipeptidyl peptidases including FAP by using a substrate producing fluorescent substances upon enzymatic decomposition. The test was conducted at 25° C. to get a final reaction volume of 100 μL in a 96 black well plate. […] Briefly, the test compounds were dissolved in dimethyl sulfoxide (DMSO) at a concentration of 20 mM and then subjected to serial dilution, thereby creating an 8 point curve. As for the control group, a 6 point curve created by serial dilution of Talabostat in the same buffer solution was used. Fluorescence intensity was measured using a microplate reader (Flexstation3, Molecular Devices) under the wavelength condition exciting at 380 nm and reading the emission at 460 nm. The inhibitory effect of the test compounds was measured as a decrease (%) in the signal rate as compared to the control group without any inhibitor. Data was fixed to a logistic model with four variables and IC50 value was calculated using GraphPad Prism program. Recombinant human FAP (R&D systems) was diluted with 50 mM tris (pH 7.5) buffer comprising 1 M of sodium chloride and 1 mg/ml of bovine serum albumin (BSA) to be 10 ng per final reaction. The test compounds were subjected to serial dilution in a buffer under the condition containing up to 0.1% of DMSO. Z-Gly-Pro-AMC (Bachem) was used as a substrate. By dissolving in DMSO and then diluting in the same buffer, the substrate was added to be […] per final reaction.

DPP4 = DPP4 (Homo sapiens, UniProt P27487); assay: DPP4 inhibition, fluorogenic substrate H-Gly-Pro-AMC; assay type: biochemical; design: purchased R&D Systems; conditions: for inhibition at 1 µM: read-out: hDPP4 inhibition % at 1 μM
Method: The compounds according to the present technology were evaluated in terms of the inhibitory effect on the activity of dipeptidyl peptidases including FAP by using a substrate producing fluorescent substances upon enzymatic decomposition. The test was conducted at 25° C. to get a final reaction volume of 100 μL in a 96 black well plate. […] Briefly, the test compounds were dissolved in dimethyl sulfoxide (DMSO) at a concentration of 20 mM and then subjected to serial dilution, thereby creating an 8 point curve. As for the control group, a 6 point curve created by serial dilution of Talabostat in the same buffer solution was used. Fluorescence intensity was measured using a microplate reader (Flexstation3, Molecular Devices) under the wavelength condition exciting at 380 nm and reading the emission at 460 nm. The inhibitory effect of the test compounds was measured as a decrease (%) in the signal rate as compared to the control group without any inhibitor. Data was fixed to a logistic model with four variables and IC50 value was calculated using GraphPad Prism program. As for recombinant human DPP4 (R&D Systems), 25 mM tris (pH 8.0) buffer as a buffer solution and H-Gly-Pro-AMC (Bachem) as a substrate were used. As for recombinant human DPP7 (R&D Systems), 25 mM MES (pH 6.0) buffer as a buffer solution and Lys-Pro-AMC (Bachem) as a substrate were used. As for recombinant human DPP8 (PBS Bioscience), as a buffer solution, a 10 mM tris (pH 7.4) buffer comprising 10 mM of magnesium chloride and 0.05% of Tween 20, and Z-Ala-Pro-AMC (BPS Bioscience) as a substrate were used. As for recombinant human DPP9 (R&D Systems), a 25 mM tris (pH 8.0) buffer as a buffer solution and H-Gly-Pro-AMC (Bachem) as a substrate were used. As for recombinant human PREP (R&D System), as a buffer solution, a 25 mM tris (pH 7.5) buffer comprising 250 mM sodium chloride and 2.5 mM DTT (Dithiolthreitol), and Z-Gly-Pro-AMC (Bachem) as a substrate were used. The evaluation was made by using 10 ng of DPP4, PDD7, and PREP, 20 ng of DPP8, and 50 ng of DPP9 based on the final reaction. In the evaluation of DPP4, the test compounds were subjected to serial dilution in a buffer under the condition containing up to 0.1% of DMSO. In the evaluation of DPP7, DPP8, DPP9, and PREP, the test compounds were subjected to serial dilution in each buffer under the condition containing up to 0.5% of DMSO.

Sequence of DPP4 (P27487 whole entry): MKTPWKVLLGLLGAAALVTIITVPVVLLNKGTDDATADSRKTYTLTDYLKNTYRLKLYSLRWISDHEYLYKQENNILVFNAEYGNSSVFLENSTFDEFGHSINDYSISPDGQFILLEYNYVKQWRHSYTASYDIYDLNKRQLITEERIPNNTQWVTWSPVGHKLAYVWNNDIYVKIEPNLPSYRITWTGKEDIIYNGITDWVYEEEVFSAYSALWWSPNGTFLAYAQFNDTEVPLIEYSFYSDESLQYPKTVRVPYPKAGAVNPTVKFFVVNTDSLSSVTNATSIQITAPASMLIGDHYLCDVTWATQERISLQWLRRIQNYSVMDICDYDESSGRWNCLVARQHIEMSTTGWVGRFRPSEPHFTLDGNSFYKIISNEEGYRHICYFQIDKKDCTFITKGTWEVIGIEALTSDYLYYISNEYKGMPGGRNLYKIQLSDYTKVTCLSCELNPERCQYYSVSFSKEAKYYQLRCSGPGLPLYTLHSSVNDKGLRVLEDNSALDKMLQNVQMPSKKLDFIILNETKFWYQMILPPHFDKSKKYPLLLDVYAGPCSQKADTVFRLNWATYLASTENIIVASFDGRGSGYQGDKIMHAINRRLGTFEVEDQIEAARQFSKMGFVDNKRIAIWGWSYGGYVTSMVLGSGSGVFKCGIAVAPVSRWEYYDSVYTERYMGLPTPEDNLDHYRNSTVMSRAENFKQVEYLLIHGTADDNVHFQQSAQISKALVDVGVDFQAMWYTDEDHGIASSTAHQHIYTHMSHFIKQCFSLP

Compound	pIC50 (Recombinant human FAP)	inhibition at 1 µM (DPP4)	hDPP4 inhibition % at 1 μM (DPP4)	inhibition at 1 µM (Recombinant human FAP)
N#C[C@@H]1CCCN1C(=O)CN1CC[C@@H](C(=O)Nc2cnc3ccccc3c2)C1 [Example 1, (R)-1-(2-((S)-2-cyanopyrrolidin-1-yl)-2-oxoethyl)-N-(quinolin-3-yl)pyrrolidine-3-carboxamide]	6.79	4.4%		
N#C[C@@H]1CCCN1C(=O)CN1CC[C@H](C(=O)Nc2cnc3ccccc3c2)C1 [Example 3, (S)-1-(2-((S)-2-cyanopyrrolidin-1-yl)-2-oxoethyl)-N-(quinolin-3-yl)pyrrolidine-3-carboxamide]	6.76	4.2%		
N#C[C@@H]1CCCN1C(=O)CN1CC[C@@H](Nc2cccc(-c3ccccc3)c2)C1 [Example 18, (S)-1-(2-((R)-3-([1,1′-biphenyl]-3-ylamino)pyrrolidin-1-yl)acetyl)pyrrolidine-2-carbonitrile]	7.60		No inhibition**	
N#C[C@@H]1CCCN1C(=O)CN1CC[C@H](Nc2cccc3ccsc23)C1 [Example 21, (S)-1-(2-((S)-3-(benzo[b]thiophen-7-ylamino)pyrrolidin-1-yl)acetyl)pyrrolidine-2-carbonitrile]	7.47	3.6%		
N#C[C@@H]1CCCN1C(=O)CN1CC[C@H](Nc2cccc3ccoc23)C1 [Example 22, (S)-1-(2-((S)-3-(benzofuran-7-ylamino)pyrrolidin-1-yl)acetyl)pyrrolidine-2-carbonitrile]	8.04	4.2%		
N#C[C@@H]1CCCN1C(=O)CN1CC[C@@H](Nc2cccc3ccsc23)C1 [Example 25, (S)-1-(2-((R)-3-(benzo[b]thiophen-7-ylamino)pyrrolidin-1-yl)acetyl)pyrrolidine-2-carbonitrile]	7.24	2.9%		
N#C[C@@H]1C[C@@H]2C[C@@H]2N1C(=O)CN1CC[C@H](Nc2cncc3ccoc23)C1 [Example 26, (1S,3S,5S)-2-(2-((S)-3-(furo[3,2-c]pyridin-7-ylamino)pyrrolidin-1-yl)acetyl)-2-azabicyclo[3.1.0]hexane-3-carbonitrile]		0.4%		93.7%

Other lines, results leading:

pIC50 (Recombinant human FAP)	inhibition at 1 µM (DPP4)	hDPP4 inhibition % at 1 μM (DPP4)	inhibition at 1 µM (Recombinant human FAP)	Compound
7.07	14.6%			N#C[C@@H]1CCCN1C(=O)CN1CC[C@@H](C(=O)Nc2ccnc3ccccc23)C1 [Example 2, (R)-1-(2-((S)-2-cyanopyrrolidin-1-yl)-2-oxoethyl)-N-(quinolin-4-yl)pyrrolidine-3-carboxamide]
7.00	15.1%			N#C[C@@H]1CCCN1C(=O)CN1CC[C@H](C(=O)Nc2ccnc3ccccc23)C1 [Example 4, (S)-1-(2-((S)-2-cyanopyrrolidin-1-yl)-2-oxoethyl)-N-(quinolin-4-yl)pyrrolidine-3-carboxamide]
6.84		No inhibition**		N#C[C@@H]1CCCN1C(=O)CN1CC[C@H](NC(=O)c2ccnc3ccccc23)C1 [Example 30, N—((S)-1-(2-((S)-2-cyanopyrrolidin-1-yl)-2-oxoethyl)pyrrolidin-3-yl)quinoline-4-carboxamide]
6.79	5.4%			N#C[C@@H]1CCCN1C(=O)CN1CC[C@H](NC(=O)c2cnc3ccccc3c2)C1 [Example 31, N—((S)-1-(2-((S)-2-cyanopyrrolidin-1-yl)-2-oxoethyl)pyrrolidin-3-yl)quinoline-3-carboxamide]
7.15	2%			N#C[C@@H]1CCCN1C(=O)CN1CC[C@H](NC(=O)c2cccc3ncccc23)C1 [Example 32, N—((S)-1-(2-((S)-2-cyanopyrrolidin-1-yl)-2-oxoethyl)pyrrolidin-3-yl)quinoline-5-carboxamide]
		No inhibition**	66.1%	N#C[C@@H]1CCCN1C(=O)CN1CC[C@H](NC(=O)c2ccc3ccccc3n2)C1 [Example 33, N—((S)-1-(2-((S)-2-cyanopyrrolidin-1-yl)-2-oxoethyl)pyrrolidin-3-yl)quinoline-2-carboxamide]
